Patent US7670991B2, “Substituted benzoylcyclohexenones and their use as herbicidal agents” (Bayer CropScience AG, priority 2001, dated 2010)

What was measured:
[1] = tested on: broad-leaved weeds and weed grasses; assay: Post-emergence test, activity against weeds; assay type: in vivo; details: test plants 5-15 cm sprayed, rated after three weeks
Text: (§1) Solvent: 5 parts by weight of acetone

crop plants = details: post-emergence, rated after three weeks
Text: Emulsifier: 1 part by weight of alkylaryl polyglycol ether
After three weeks, the degree of damage to the plants is rated in % damage in comparison to the development of the untreated control.

weeds [2] = assay: Trial in sown rice (greenhouse), activity against weeds; assay type: in vivo; details: foliar treatment at 1.5-2-leaf stage of rice, flooded, rated 4 weeks after application
Text: as §1
Plant vessels (dimensions: 20 cm×20 cm×9 cm; surface: 1/200 ar) are filled with soil from a rice field. Seeds of rice and weeds are sown into the soil, which is kept moist. At the 1.5-2-leaf stage of rice, the dilute preparation of active compound is applied as a spray (foliar treatment).
One day after the treatment, the test vessels are flooded to a water depth of 3 cm. The test batches are then kept flooded (water depth 3 cm).

rice = assay: Trial in sown rice (greenhouse), tolerance by rice; assay type: in vivo; details: foliar treatment at 1.5-2-leaf stage of rice, flooded, rated 4 weeks after application
Text: as §1
Plant vessels (dimensions: 20 cm×20 cm×9 cm; surface: 1/200 ar) are filled with soil from a rice field. Seeds of rice and weeds are sown into the soil, which is kept moist.
The test batches are then kept flooded (water depth 3 cm).

[3] = log P by reversed-phase HPLC (C 18), acidic range; assay type: physicochemical; details: for logP: marked a): acidic range, 0.1% aqueous phosphoric acid/acetonitrile gradient, HPLC C 18, 43° C.
Procedure: Temperature: 43° C. (a) Mobile phases for the determination in the acidic range: 0.1% aqueous phosphoric acid, acetonitrile; linear gradient from 10% acetonitrile to 90% acetonitrile—the corresponding measurement results are marked ^a) in Table 1.

weeds [4] = assay: Pre-emergence test, activity against weeds; assay type: in vivo; details: soil sprayed 24 hours after sowing, rated after three weeks
Text: as §1
Seeds of the test plants are sown in normal soil.

Structure (SMILES) | activity against weeds (weeds [4]) | logP [3] | other results
CN1CCN(C(=O)Nc2c(Cl)ccc(C(=O)C3C(=O)CCCC3=O)c2Cl)C1=O [Example 1-1, N-[2,6-dichloro-3-[(2,6-dioxo-cyclohexyl)-carbonyl]-phenyl]-3-methyl-2-oxo-1-imidazolidinecarboxamide] | strong activity |  | activity against broad-leaved weeds and weed grasses [1]: strong activity; tolerated by crop plants (crop plants): tolerated well; activity against weeds (weeds [2]): strong activity; tolerated by rice (rice): tolerated well; chromatographic logP ([3]; reversed-phase HPLC column (C 18), pH=2.3): 2.07
CN(C)NC(=O)Nc1c(Cl)ccc(C(=O)C2=C(O)CCCC2=O)c1Cl [Example 1-6] | strong activity | (I-2) logP = 1.81^a) | 
O=C1CCCC(O)=C1C(=O)c1ccc(Cl)c(NC(=O)N2CCOCC2)c1Cl [Example 1-5] | strong activity | (I-2) logP = 1.60^a) | 
CCN1CCN(C(=O)Nc2c(Cl)ccc(C(=O)C3=C(O)CCCC3=O)c2Cl)C1=O [Example 1-2] | strong activity | (I-2) logP = 2.33^a) | 
COC(=O)c1ccc(Cl)c(NC(=O)N2CCCN(CC(C)C)C2=O)c1Cl [IIIa-21] |  | logP = 3.43^a) | 
O=C(Nc1c(Cl)ccc(C(=O)C2=C(O)CCCC2=O)c1Cl)NC1CC1 [Example 1-13] |  | (I-2) logP = 1.77^a) | 
CC(C)N(C)C(=O)Nc1c(Cl)ccc(C(=O)C2=C(O)CCCC2=O)c1Cl [Example 1-166] |  | (I-2) logP = 2.17^a) | 
CN1CCCN(C(=O)Nc2c(Cl)ccc(C(=O)C3=C(O)CCCC3=O)c2Cl)C1=O [Example 1-4] | strong activity | (I-2) logP = 2.33^a) | 
CCn1ccsc1=NC(=O)Nc1c(Cl)ccc(C(=O)C2=C(O)CCCC2=O)c1Cl [Example 1-163] |  | (I-2) logP = 2.22^a) | 
CON(C)C(=O)Nc1c(Cl)ccc(C(=O)C2=C(O)CCCC2=O)c1Cl [Example 1-3] | strong activity | (I-2) logP = 1.97^a) | 
O=C(NCC1CC1)Nc1c(Cl)ccc(C(=O)C2=C(O)CCCC2=O)c1Cl [Example 1-171] |  | (I-2) logP = 2.05^a) | 
O=C(NCC1CCCO1)Nc1c(Cl)ccc(C(=O)C2=C(O)CCCC2=O)c1Cl (centres unmarked) [Example 1-33] |  | (I-2) logP = 1.81^a) | 
O=C1CCCC(O)=C1C(=O)c1ccc(Cl)c(NC(=O)N2CCCC2)c1Cl [Example 1-16] |  | (I-2) logP = 1.90^a) | 
O=C1CCCC(O)=C1C(=O)c1ccc(Cl)c(NC(=O)C2=NOCC2)c1Cl [Example 1-145] |  | (I-2) logP = 2.02^a) | 
CON(C)C(=S)Nc1c(Cl)ccc(C(=O)C2=C(O)CCCC2=O)c1Cl [Example 1-159] |  | (I-2) logP = 2.28^a) | 
COCCCNC(=O)Nc1c(Cl)ccc(C(=O)C2=C(O)CCCC2=O)c1Cl [Example 1-172] |  | (I-2) logP = 1.72^a) | 
